Several values for one entry are separate records, joined by “and”; a condition that tells them apart may be missing. Identical values can stand only once. Toxic doses and inconclusive results are not listed.
Tested on: CD2F1 mice, L1210 leukemia ip, survival T/C
Experiment: NCI In Vivo Anticancer Drug Screen. Data for tumor model L1210 Leukemia (intraperitoneal) in CD2F1 (CDF1) mice
Conditions: higher = longer survival
How it was run: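 Vehicle-treated tumor-bearing mice served as controls (C) for compound-treated mice (T). Reported figure is T divided by C.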

[1] = endpoint: mean survival time, dose: 100.0 mg/kg/injection, schedule: Q04DX003 (ip), vehicle: saline with Tween-80
[2] = endpoint: mean survival time, dose: 200.0 mg/kg/injection, schedule: Q04DX003 (ip), vehicle: saline with Tween-80
[3] = endpoint: mean survival time, dose: 400.0 mg/kg/injection, schedule: Q04DX003 (ip), vehicle: saline with Tween-80
[4] = endpoint: mean survival time, dose: 25.0 mg/kg/injection, schedule: Q04DX002 (ip), vehicle: saline with Tween-80
[5] = endpoint: mean survival time, dose: 100.0 mg/kg/injection, schedule: Q04DX002 (ip), vehicle: saline with Tween-80
[6] = endpoint: mean survival time, dose: 200.0 mg/kg/injection, schedule: Q04DX002 (ip), vehicle: saline with Tween-80
[7] = endpoint: mean survival time, dose: 400.0 mg/kg/injection, schedule: Q04DX002 (ip), vehicle: saline with Tween-80
[8] = endpoint: mean survival time, dose: 50.0 mg/kg/injection, schedule: Q01DX001 (ip), vehicle: saline with Tween-80
[9] = endpoint: mean survival time, dose: 100.0 mg/kg/injection, schedule: Q01DX001 (ip), vehicle: saline with Tween-80
[10] = endpoint: mean survival time, dose: 200.0 mg/kg/injection, schedule: Q01DX001 (ip), vehicle: saline with Tween-80
[11] = endpoint: mean survival time, dose: 400.0 mg/kg/injection, schedule: Q01DX001 (ip), vehicle: saline with Tween-80
[12] = endpoint: mean survival time, dose: 100.0 mg/kg/injection, schedule: Q04DX003 (ip), vehicle: other
[13] = endpoint: mean survival time, dose: 200.0 mg/kg/injection, schedule: Q04DX003 (ip), vehicle: other
[14] = endpoint: mean survival time, dose: 400.0 mg/kg/injection, schedule: Q04DX003 (ip), vehicle: other
[15] = endpoint: mean survival time, dose: 100.0 mg/kg/injection, schedule: Q01DX009 (ip), vehicle: saline with Tween-80
[16] = endpoint: mean survival time, dose: 200.0 mg/kg/injection, schedule: Q01DX009 (ip), vehicle: saline with Tween-80
[17] = endpoint: mean survival time, dose: 400.0 mg/kg/injection, schedule: Q01DX009 (ip), vehicle: saline with Tween-80

COC(=O)[C@@]12OC[C@]34[C@H]([C@@H](O)[C@@H]1O)[C@@]1(C)CC(=O)C(OC(=O)CC(=O)OC5=C(C)[C@@H]6C[C@H]7OC(=O)[C@H](OC(=O)/C=C(\C)C(C)C)[C@H]8[C@]9(C(=O)OC)OC[C@]78[C@H]([C@@H](O)[C@@H]9O)[C@@]6(C)CC5=O)=C(C)[C@@H]1C[C@H]3OC(=O)[C@H](OC(=O)/C=C(\C)C(C)C)[C@@H]24
T/C (endpoint: median survival time, dose: 0.37 mg/kg/injection, schedule: Q01DX009 (ip), vehicle: saline + Tween-80 + alcohol): 113 % of control
T/C (endpoint: median survival time, dose: 0.38 mg/kg/injection, schedule: Q01DX009 (ip), vehicle: saline + Tween-80 + alcohol): 112 % of control
T/C (endpoint: median survival time, dose: 0.75 mg/kg/injection, schedule: Q01DX009 (ip), vehicle: saline + Tween-80 + alcohol): 115 % of control and 121 % of control
T/C (endpoint: median survival time, dose: 1.5 mg/kg/injection, schedule: Q01DX009 (ip), vehicle: saline + Tween-80 + alcohol): 121 % of control and 112 % of control

O=[N+]([O-])O.S=C([SH2+])[n+]1ccccc1.S=C([SH2+])[n+]1ccccc1.[NH-]C1CCCCC1[NH-].[Pt+4]
T/C (endpoint: median survival time, dose: 3.12 mg/kg/injection, schedule: Q04DX003 (ip), vehicle: saline): 101 % of control
T/C (endpoint: median survival time, dose: 6.25 mg/kg/injection, schedule: Q04DX003 (ip), vehicle: saline): 109 % of control
T/C (endpoint: median survival time, dose: 12.5 mg/kg/injection, schedule: Q04DX003 (ip), vehicle: saline): 100 % of control
T/C (endpoint: median survival time, dose: 25.0 mg/kg/injection, schedule: Q04DX003 (ip), vehicle: saline): 90 % of control
T/C (endpoint: median survival time, dose: 50.0 mg/kg/injection, schedule: Q04DX003 (ip), vehicle: saline): 95 % of control
T/C (endpoint: median survival time, dose: 100.0 mg/kg/injection, schedule: Q04DX003 (ip), vehicle: saline): 106 % of control
T/C (endpoint: median survival time, dose: 200.0 mg/kg/injection, schedule: Q04DX003 (ip), vehicle: saline): 109 % of control

O=C(O)Cc1cc2c(cc1I)OCO2
T/C [1]: 100 % of control
T/C [2]: 95 % of control
T/C [3]: 101 % of control

O[Si](c1ccccc1)(c1ccccc1)c1ccccc1
T/C [1]: 102 % of control
T/C [2]: 97 % of control
T/C [3]: 92 % of control

CCOC(=O)c1c(C)nc(C)c(C(=O)OCC)c1-c1ccc(N(C)C)cc1
T/C [1]: 104 % of control
T/C [2]: 98 % of control

O=[N+]([O-])c1ccc(NN=C2c3ccccc3Cc3ccccc32)c([N+](=O)[O-])c1
T/C [4]: 98 % of control
T/C (endpoint: mean survival time, dose: 50.0 mg/kg/injection, schedule: Q04DX002 (ip), vehicle: saline with Tween-80): 91 % of control
T/C [5]: 87 % of control

CNNCCCC(=O)NC(C)C
T/C (endpoint: mean survival time, dose: 25.0 mg/kg/injection, schedule: Q04DX003 (ip), vehicle: saline): 105 % of control
T/C (endpoint: mean survival time, dose: 50.0 mg/kg/injection, schedule: Q04DX003 (ip), vehicle: saline): 103 % of control
T/C (endpoint: mean survival time, dose: 100.0 mg/kg/injection, schedule: Q04DX003 (ip), vehicle: saline): 110 % of control
T/C (endpoint: mean survival time, dose: 200.0 mg/kg/injection, schedule: Q04DX003 (ip), vehicle: saline): 112 % of control

O=C(O)CCCCCNCC(CNCCCCCC(=O)O)(C(=O)O)C(=O)O
T/C [5]: 104 % of control
T/C [6]: 96 % of control
T/C [7]: 111 % of control

COc1cc(N(C)C)ccc1/C=C\c1ccnc2ccccc12
T/C [8]: 96 % of control
T/C [9]: 95 % of control
T/C [10]: 95 % of control
T/C [11]: 93 % of control

O=NN(CCCl)C(=O)NC1CCN(Cc2ccccc2)CC1
T/C (endpoint: mean survival time, dose: 12.5 mg/kg/injection, schedule: Q01DX001 (ip), vehicle: saline with Tween-80): 123 % of control
T/C [8]: 271 % of control
T/C [9]: 379 % of control

COC(=O)NC(/C=C/c1ccccc1)c1ccccc1 (stereo unspecified)
T/C [12]: 94 % of control
T/C [13]: 97 % of control
T/C [14]: 97 % of control

C=CCCCCCCCCC(=O)NCCN1CCOCC1
T/C (endpoint: mean survival time, dose: 50.0 mg/kg/injection, schedule: Q01DX009 (ip), vehicle: saline with Tween-80): 100 % of control
T/C [15]: 96 % of control
T/C [16]: 88 % of control

O=c1[nH]cnc2nn(C3OC(CO)C(O)C3O)nc12 (stereo unspecified)
T/C (endpoint: median survival time, dose: 12.5 mg/kg/injection, schedule: Q01DX005 (ip), vehicle: saline): 94 % of control
T/C (endpoint: median survival time, dose: 25.0 mg/kg/injection, schedule: Q01DX005 (ip), vehicle: saline): 94 % of control
T/C (endpoint: median survival time, dose: 50.0 mg/kg/injection, schedule: Q01DX005 (ip), vehicle: saline): 91 % of control
T/C (endpoint: median survival time, dose: 100.0 mg/kg/injection, schedule: Q01DX005 (ip), vehicle: saline): 97 % of control and 103 % of control
T/C (endpoint: median survival time, dose: 200.0 mg/kg/injection, schedule: Q01DX005 (ip), vehicle: saline): 101 % of control and 107 % of control
T/C (endpoint: median survival time, dose: 400.0 mg/kg/injection, schedule: Q01DX005 (ip), vehicle: saline): 103 % of control

CCOCCNc1ccc([N+](=O)[O-])cc1[N+](=O)[O-]
T/C [5]: 91 % of control
T/C [6]: 91 % of control
T/C [7]: 98 % of control

CCOC(=O)/C=C1\NC(=O)CS1
T/C [15]: 97 % of control
T/C [1]: 100 % of control
T/C [16]: 95 % of control
T/C [2]: 100 % of control
T/C [17]: 103 % of control
T/C [3]: 100 % of control

Cc1ccc(-n2c(O)c(N=Nc3ccccc3)c(=O)n(-c3ccccc3)c2=S)cc1
T/C [9]: 100 % of control
T/C [10]: 100 % of control
T/C [11]: 86 % of control

O=C(O)c1cc2ccc(Cl)cc2c2cc(C(F)(F)F)ccc12
T/C (endpoint: mean survival time, dose: 18.8 mg/kg/injection, schedule: Q01DX009 (ip), vehicle: saline): 97 % of control
T/C (endpoint: mean survival time, dose: 37.5 mg/kg/injection, schedule: Q01DX009 (ip), vehicle: saline): 111 % of control
T/C (endpoint: mean survival time, dose: 75.0 mg/kg/injection, schedule: Q04DX003 (ip), vehicle: saline): 95 % of control

CC(O)c1cc2ccccc2n1C (stereo unspecified)
T/C [9]: 98 % of control
T/C [10]: 103 % of control
T/C [11]: 101 % of control

CCCCCCCCCCCC(=O)CCCCC
T/C [12]: 96 % of control
T/C [13]: 97 % of control
T/C [14]: 97 % of control

Nc1c(Cl)cccc1C(=O)c1ccccc1C(=O)O
T/C [15]: 97 % of control
T/C [1]: 101 % of control
T/C [16]: 95 % of control
T/C [2]: 101 % of control
T/C [17]: 101 % of control
T/C [3]: 103 % of control

C=C(C)C1(CC)C(=O)NC(=S)N(C)C1=O (stereo unspecified)
T/C (endpoint: mean survival time, dose: 75.0 mg/kg/injection, schedule: Q01DX001 (ip), vehicle: saline): 97 % of control
T/C (endpoint: mean survival time, dose: 150.0 mg/kg/injection, schedule: Q01DX001 (ip), vehicle: saline): 101 % of control
T/C (endpoint: mean survival time, dose: 300.0 mg/kg/injection, schedule: Q01DX001 (ip), vehicle: saline): 101 % of control

O=C1CC2c3[nH]c4ccccc4c3CCN2C2=C1CCCC2 (stereo unspecified)
T/C [1]: 100 % of control
T/C [2]: 103 % of control

O=C(O)CCc1[nH]c2ccccc2c1CC(=O)O
T/C [5]: 91 % of control
T/C [6]: 98 % of control
T/C [7]: 119 % of control

Nc1ccc(-c2ccc(N)cc2)cc1
T/C [15]: 94 % of control
T/C [1]: 101 % of control
T/C [16]: 90 % of control
T/C [2]: 101 % of control
T/C [17]: 100 % of control
T/C [3]: 96 % of control

COc1ccc(-c2cc(C(=O)Nc3cc(C(F)(F)F)cc(C(F)(F)F)c3)c3ccccc3n2)cc1
T/C (endpoint: median survival time, dose: 25.0 mg/kg/injection, schedule: Q01DX005 (ip), vehicle: DMSO): 100 % of control
T/C (endpoint: median survival time, dose: 50.0 mg/kg/injection, schedule: Q01DX005 (ip), vehicle: DMSO): 98 % of control
T/C (endpoint: median survival time, dose: 100.0 mg/kg/injection, schedule: Q01DX005 (ip), vehicle: DMSO): 98 % of control
T/C (endpoint: median survival time, dose: 200.0 mg/kg/injection, schedule: Q01DX005 (ip), vehicle: DMSO): 109 % of control
T/C (endpoint: median survival time, dose: 400.0 mg/kg/injection, schedule: Q01DX005 (ip), vehicle: DMSO): 106 % of control

NC(CSS(=O)(=O)O)=NCCCCN=C(N)CSS(=O)(=O)O
T/C (endpoint: mean survival time, dose: 6.25 mg/kg/injection, schedule: Q04DX002 (ip), vehicle: saline with Tween-80): 103 % of control
T/C (endpoint: mean survival time, dose: 12.5 mg/kg/injection, schedule: Q04DX002 (ip), vehicle: saline with Tween-80): 106 % of control
T/C [4]: 95 % of control

COC(C(=O)C(O)C(C)O)C1Cc2cc3cc(OC4CC(OC5CC(O)C(O)C(C)O5)C(O)C(C)O4)c(C)c(O)c3c(O)c2C(=O)C1OC1CC(OC2CC(O)C(OC3CC(C)(O)C(O)C(C)O3)C(C)O2)C(O)C(C)O1 (stereo unspecified)
T/C (endpoint: mean survival time, dose: 0.13 mg/kg/injection, schedule: Q01DX009 (ip), vehicle: saline): 101 % of control
T/C (endpoint: mean survival time, dose: 0.25 mg/kg/injection, schedule: Q01DX009 (ip), vehicle: saline): 97 % of control
T/C (endpoint: mean survival time, dose: 0.5 mg/kg/injection, schedule: Q01DX009 (ip), vehicle: saline): 101 % of control
T/C (endpoint: mean survival time, dose: 1.0 mg/kg/injection, schedule: Q01DX009 (ip), vehicle: saline): 95 % of control

— PubChem BioAssay AID256 (DTP/NCI, 2004)
